Test: Pharmacokinetics in beagles (Test Example 5)
Type: in vivo
Design: unit not given beside the values
Settings: male beagles fasted 18 hours or more, oral, 600 mg of EPA-E, plasma EPA, corrected for pre-dose value
Method: The composition or the capsule prepared was orally administered to 6 male beagles (at the age of 2 to 6 years with the body weight of 8 to 13 kg, 3 Marshall beagles and 3 Nosan beagles) under fasting conditions, and blood EPA concentration was evaluated. The test animals were fasted 18 hours or more before the administration, and each animal was administered with the composition at an amount corresponding to 600 mg of the EPA-E. Blood was collected before the administration, and 0.5, 1, 1.5, 2, 3, 4, 6, 8, and 24 hours after the administration, and plasma was separated to measure plasma EPA concentration by LC/MS/MS (a method of separating a sample by liquid chromatography and separating the resultant components by mass spectrometry for measurement). The control group was administered with the EPA-E stock solution encapsulated in a capsule. […] In the calculation of each parameter, the value was corrected by subtracting the blood EPA concentration before the administration of the composition.

## CC/C=C\C/C=C\C/C=C\C/C=C\C/C=C\CCCC(=O)OCC [Comp. Ex. 5, Ethyl eicosapentaenoate ester]
0 to 2 hours
  AUC0-2: 11.3
0 to 24 hours
  AUC0-24: 76.6

Source: patent US20160158184A1, “SELF-EMULSIFYING COMPOSITION OF OMEGA3 FATTY ACID” (priority 2013, published 2016)
